# Reference: patent US12364689B2, “Dosage regimen for the treatment of cancer” (AstraZeneca AB, priority 2020, dated 2025)
# Entries after “also recorded” stand apart in the source; their conditions may differ.
# How the values were obtained:
# [1] = system: ER positive, HER2 negative advanced breast cancer; test: Phase 1 dose-escalation and expansion clinical trial: anti-tumour activity by RECIST 1.1; type: in vivo, human; conditions: for ORR (%) objective response rate: responders/evaluable (percent)
# Excerpt: “Objective response rate” is the percentage of patients with measurable disease at baseline and who have a date of first dose of >17 weeks or a date of post-treatment scan of >15 weeks that indicates a confirmed response as measured by the RECIST criteria. “Clinical benefit rate” is the percentage of patients who have a date of first dose of ≥25 weeks or a date of post-treatment scan of >23 weeks that indicates a confirmed response or stable disease as measured by the RECIST criteria for >23 weeks post treatment. Introduction: To determine the optimal dosing regimen for AZD9833 Phase 1 dose-escalation and expansion in patients with ER positive, HER2 negative advanced breast cancer was carried out according to the following basic protocol. Overall Design: This is a multicentre dose escalation and expansion, first-in-human study designed to evaluate the safety and tolerability of AZD9833 alone (Parts A and B) in women with endocrine-resistant ER+HER2-breast cancer that is not amenable to treatment with curative intent. Efficacy Assessment: Anti-tumour activity will be evaluated using RECIST 1.1 by investigator assessments. Baseline tumour assessments should encompass all areas of known predilection for metastases in the disease under evaluation and should additionally investigate areas that may be involved based on signs and symptoms of individual subjects. Baseline assessments should be performed no more than 28 days before the start of AZD9833, ideally, as close as possible to the start of AZD9833. The methods of assessment used at baseline should be used at each subsequent assessment during treatment and follow-up part of the study. Any other sites at which new disease is suspected should also be appropriately imaged. If an unscheduled assessment is performed and the subject has not progressed, every attempt should be made to perform subsequent assessments at the scheduled visits while the subject remains on AZD9833 or until they have progressed. Categorisation of objective tumour response assessment will be based on the RECIST 1.1 guidelines for response: complete response (CR), partial response (PR), stable disease (SD), and progression of disease (PD). For subjects who only have non-measurable disease at baseline, categorisation of objective tumour response assessment will be based on the RECIST 1.1 guidelines for response for non-target lesions (NTLs): CR, PD, and non-CR/non PD. If the investigator is unsure whether progression has occurred, particularly with response to NTLs or the appearance of a new lesion, it is advisable to continue AZD9833 and reassess the subject's status at the next scheduled assessment, or sooner if clinically indicated. To achieve ‘unequivocal progression’ on the basis of non-target disease, there must be an overall level of substantial worsening in non-target disease such that, even in presence of SD or PR in the target disease, the overall tumour burden has increased sufficiently to merit discontinuation of therapy. A modest increase in the size of one or more NTLs is usually not sufficient to qualify for unequivocal disease progression status. A clinical trial according to the above protocol was carried out using 60 patients.
# [2] = system: women with ER+ HER2- advanced breast cancer; test: Phase 1 clinical trial: safety and tolerability (AEs, DLTs); type: in vivo
# Method: “Grade 4 or 5 adverse events” can be classified according to the common terminology criteria for adverse events (CTCAE).
# Dose Limiting Toxicity (DLT): a DLT is defined as an AE or abnormal laboratory value that occurs from the first dose of AZD9833 up to and including Day 28, Cycle 1 (the DLT period) that is assessed as unrelated to disease progression, intercurrent illness, or concomitant medications and that, despite optimal therapeutic intervention, meets any of the following criteria: • (a) Any death not clearly due to the underlying disease or extraneous causes • (b) Haematological toxicities as follows (CTCAE): • (i) Any >Grade 4 haematological toxicity present for more than 4 consecutive days, or requiring blood transfusions, G-CSF, or erythropoietins. • (ii)>Grade 3 neutropenia of any duration accompanied with fever ≥38.5° C. and/or systemic infection. • (iii)>Grade 3 thrombocytopenia of any duration with bleeding. • (iv) Grade 4 thrombocytopenia (regardless of duration or bleeding) • (c) Any non-haematological toxicity CTCAE >Grade 3 but with the following conditional stipulations: • (i) Nausea >CTCAE Grade 3 for more than 3 consecutive days despite administration of maximal anti-emetic therapy. • (ii) Vomiting >CTCAE Grade 3 for more than 3 consecutive days despite administration of maximal anti-emetic therapy. • (iii) Vomiting >CTCAE Grade 4 (regardless of duration) • (iv) Diarrhoea >CTCAE Grade 3 for more than 3 consecutive days despite administration of maximal anti-diarrheal therapy. • (v) Diarrhoea ≥ CTCAE Grade 4 (regardless of duration) • (vi) CTCAE Grade ≥3 fatigue that persists for more than 4 days. • (vii) CTCAE Grade ≥3 increase in creatinine. • (d) Other toxicity: • (i) QTcF value >500 ms or QTcF prolongation from baseline by 60 ms and >480 ms confirmed on at least 2 separate ECGs. • (ii)>CTCAE Grade 4 electrocardiogram QT corrected interval prolongation. • (iii) An increase in serum/plasma AST or ALT ≥3×ULN and concurrent TBL ≥2 ULN. • (e) Any other toxicity that: • (i) Is greater than at baseline and is clinically significant and/or unacceptable despite optimal therapeutic intervention, and is judged to be a DLT by the SRC, or • (ii) Results in a disruption of the dosing schedule of more than 14 days despite optimal therapeutic intervention.
# Safety and Clinical Assessments: The safety and tolerability of AZD9833 is the primary objective of this study. Related outcome measures are DLTs, AEs/SAEs, vital signs, clinical chemistry/haematology, and ECGs.
# Clinical Safety Laboratory Assessments: Clinical chemistry, haematology, and urinalysis and coagulation will be performed at a local laboratory at or near to the investigator study site. Sample tubes and sample sizes may vary depending on laboratory method used and routine practice at the study site.
# A clinical trial according to the above protocol was carried out using 60 patients.
smiles,measurement,setting,value
"C[C@@H]1Cc2c(ccc3[nH]ncc23)[C@@H](c2ccc(NC3CN(CCCF)C3)cn2)N1CC(F)(F)F [AZD9833, N-(1-(3-fluoropropyl)azetidin-3-yl)-6-((6S,8R)-8-methyl-7-(2,2,2-trifluoroethyl)-6,7,8,9-tetrahydro-3H-pyrazolo[4,3-f]isoquinolin-6-yl) pyridin-3-amine]",CBR (%) clinical benefit rate at 24 weeks,[1]; 25 mg QD oral (n = 12),4/12 (33.3) %
same,ORR (%) objective response rate,[1]; 25 mg QD oral (n = 12),1/9 (11.1) %
same,CBR (%) clinical benefit rate at 24 weeks,[1]; 75 mg QD oral (n = 12),8/12 (66.7) %
same,ORR (%) objective response rate,[1]; 75 mg QD oral (n = 12),1/7 (14.3) %
same,CBR (%) clinical benefit rate at 24 weeks,[1]; 150 mg QD oral (n = 13),4/13 (30.8) %
same,ORR (%) objective response rate,[1]; 150 mg QD oral (n = 13),2/11 (18.2) %
same,CBR (%) clinical benefit rate at 24 weeks,[1]; 300 mg QD oral (n = 13),3/11 (27.3) %
same,ORR (%) objective response rate,[1]; 300 mg QD oral (n = 13),2/10 (20.0) %
same,CBR (%) clinical benefit rate at 24 weeks,[1]; 450 mg QD oral (n = 10),3/4 (75.0) %
same,ORR (%) objective response rate,[1]; 450 mg QD oral (n = 10),1/6 (16.7) %
same,CBR (%) clinical benefit rate at 24 weeks,"[1]; Total, all doses (n = 60)",22/52 (42.3) %
same,ORR (%) objective response rate,"[1]; Total, all doses (n = 60)",7/43 (16.3) %
same,Evidence of clinical benefit and target engagement,"[1]; women with ER+ ABC, incl. pre-treated with CDK4/6 inhibitors and fulvestrant, and ESR1 mutations",observed at all dose levels
same,DLT observed,[2]; 300 mg,G3 QTcF prolongation
same,DLT observed,[2]; 450 mg,"G3 vomiting; also recorded: a combination of G2 visual disturbance, G2 headache and G2 gait disturbance"
same,G4 or 5 AEs,"[2]; 60 patients, all doses",No G4 or 5 AEs were reported
same,"Treatment-related AE: asthenia, patients affected","[2]; 60 patients, all doses",10%
same,"Treatment-related AE: bradycardia/sinus bradycardia, patients affected","[2]; 60 patients, all doses",45%
same,"Treatment-related AE: dizziness, patients affected","[2]; 60 patients, all doses",10%
same,"Treatment-related AE: fatigue, patients affected","[2]; 60 patients, all doses",13%
same,"Treatment-related AE: nausea, patients affected","[2]; 60 patients, all doses",18%
same,"Treatment-related AE: visual disturbances, patients affected","[2]; 60 patients, all doses",53%
same,"Treatment-related AE: vomiting, patients affected","[2]; 60 patients, all doses",10%
same,clinical relevance of observed AEs,"[2]; 60 patients, all doses",None of the observed AEs were deemed to be clinically relevant
same,patients who experienced DLTs,"[2]; of 60 patients, all doses",Three
same,"asthenia, share G1","[2]; of affected patients, grade 1",67%
same,"bradycardia/sinus bradycardia, share G1","[2]; of affected patients, grade 1",93%
same,"dizziness, share G1","[2]; of affected patients, grade 1",83%
same,"fatigue, share G1","[2]; of affected patients, grade 1",38%
same,"nausea, share G1","[2]; of affected patients, grade 1",46%
same,"visual disturbances, share G1","[2]; of affected patients, grade 1",91%
same,"vomiting, share G1","[2]; of affected patients, grade 1",50%
same,"asthenia, share G2","[2]; of affected patients, grade 2",33%
same,"bradycardia/sinus bradycardia, share G2","[2]; of affected patients, grade 2",7%
same,"fatigue, share G2","[2]; of affected patients, grade 2",63%
same,"nausea, share G2","[2]; of affected patients, grade 2",55%
same,"visual disturbances, share G2","[2]; of affected patients, grade 2",6%
same,"vomiting, share G2","[2]; of affected patients, grade 2",33%
same,"dizziness, share G3","[2]; of affected patients, grade 3",17%
same,"visual disturbances, share G3","[2]; of affected patients, grade 3",3%
same,"vomiting, share G3","[2]; of affected patients, grade 3",17%
